Measured values from patent publication US20250215029A1 (Recludix Pharma, Inc., priority 2022, published 2025).

The compounds below were run against T1, pY705-STAT3 in PBMC (Homo sapiens, UniProt P40763) (assay: MSD-pSTAT-PBMC Assay (pSTAT3, IL-6 stimulated)). Details: PBMC, compound 3 hrs, then 10 ng/mL IL-6 for 10 min; Table 115; read-out: STAT3.
T1 construct: Cryopreserved Peripheral Blood Mononuclear Cells (PBMC) are from AllCells; host or cells: cryopreserved PBMC
Type: cell-based
Text: Cryopreserved Peripheral Blood Mononuclear Cells (PBMC) are from AllCells. Recombinant Human IL-4 and IL-6 are from Peprotech. Mouse monoclonal anti-STAT3 antibody, rabbit monoclonal anti-pY705-STAT3 antibody, rabbit monoclonal Anti-pY641-STAT6 antibody, and lysis buffer are from Cell Signaling Technology (CST). Mouse monoclonal anti-STAT6 antibody is from BioLegend. Assay plates, blocker, and anti-rabbit secondary antibody are from Meso Scale Discovery (MSD).
Cyropreserved PBMCs were thawed out and allowed to recover overnight in IMDM+10% heat-inactivated FBS prior to plating 50,000 (STAT3) or 25,000 (STAT6) cells per well in 96-well U-bottom tissue culture plates. Cells were treated with compound for 3 hrs, then stimulated with 10 ng/mL IL-6 (STAT3) or 1 ng/mL IL-4 (STAT6) for 10 min. Cells were then spun down and washed with ice-cold PBS prior to lysing the cell pellet with 1× lysis buffer (CST) with 1× HALT protease and phosphatase inhibitor cocktail (Thermo). Lysates were transferred to and incubated overnight at 4° C. with shaking in QuickPlex 96-well high bind assay plates (MSD) pre-coated overnight with 30 μL per well of 0.6 μg/mL mouse monoclonal anti-STAT3 antibody (STAT3) or 2 μg/mL mouse monoclonal anti-STAT6 antibody (STAT6) in 1× PBS, and pre-blocked for 1 hour with 3% Blocker-A (MSD). Captured protein in the assay plates were then washed and probed with 25 μL per well of […] rabbit monoclonal anti-pY705-STAT3 antibody (STAT3) or 0.18 μg/ml rabbit monoclonal Anti-pY641-STAT6 antibody (STAT6) in 1% Blocker-A for 1 hour at room temperature with shaking, then washed and probed with 25 ul per well of 1 ug/ml Sulfo-TAG Labeled Goat Anti-Rabbit Antibody (MSD) in 1% Blocker-A for 1 hour at room temperature with shaking. Assay plates were then washed and 150 μL of 1× Read Buffer-T (MSD) was added to each well prior to reading on an SQ120 MSD Plate Reader. Assay signal from each sample was subtracted by the signal from unstimulated control wells and normalized to DMSO control wells. IC50 values were calculated using Graph Pad Prism Dose-Response Nonlinear Regression with variable slope. For both pSTAT3 and pSTAT6 A=≤100 nM; B 100-1000 nM; C=>1000-3000 nM; D=>3 μM; and NT=Not Tested.

T1 sequence (P40763 whole entry): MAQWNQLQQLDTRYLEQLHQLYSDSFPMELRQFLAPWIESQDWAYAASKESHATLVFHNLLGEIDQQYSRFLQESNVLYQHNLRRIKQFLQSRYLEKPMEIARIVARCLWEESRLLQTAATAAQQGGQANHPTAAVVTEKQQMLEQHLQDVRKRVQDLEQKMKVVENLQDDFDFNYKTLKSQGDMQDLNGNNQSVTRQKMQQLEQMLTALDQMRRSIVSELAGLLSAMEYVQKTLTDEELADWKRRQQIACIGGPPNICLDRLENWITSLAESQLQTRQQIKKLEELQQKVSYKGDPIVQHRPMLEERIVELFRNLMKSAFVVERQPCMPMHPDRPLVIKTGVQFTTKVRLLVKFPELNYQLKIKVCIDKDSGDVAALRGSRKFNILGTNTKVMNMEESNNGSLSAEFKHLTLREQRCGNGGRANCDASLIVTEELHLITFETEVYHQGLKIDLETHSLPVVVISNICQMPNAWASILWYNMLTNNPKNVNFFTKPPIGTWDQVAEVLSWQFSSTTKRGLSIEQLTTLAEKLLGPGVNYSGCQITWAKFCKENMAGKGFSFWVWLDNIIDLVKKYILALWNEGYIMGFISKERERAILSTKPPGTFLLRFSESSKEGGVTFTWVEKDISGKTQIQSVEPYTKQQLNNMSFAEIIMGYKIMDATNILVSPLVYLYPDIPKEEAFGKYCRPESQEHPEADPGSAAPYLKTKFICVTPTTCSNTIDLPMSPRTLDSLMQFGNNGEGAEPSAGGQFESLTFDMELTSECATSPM

Compared with `CCCOC(=O)[C@H](C)NP(=O)(Cc1ccc2sc(C(=O)N[C@H]3CCC[C@H]4CC[C@@H](C(=O)N5CC(c6cccc(C#N)n6)C5)N4C3=O)cc2c1)Oc1ccccc1` (stereo partly drawn) [Compound 289, propyl (((2-(((3S,6S,9aS)-3-(3-(6-cyanopyridin-2-yl)azetidine-1-carbonyl)-5-oxooctahydro-1H-pyrrolo[1,2-a]azepin-6-yl)carbamoyl)benzo [b]thiophen-5-yl)methyl)(phenoxy)phosphoryl)-L-alaninate], `COCCOC(=O)[C@H](C)NP(=O)(Cc1ccc2sc(C(=O)N[C@H]3CCC[C@H]4CC[C@@H](C(=O)N5CC(c6cccnc6)C5)N4C3=O)cc2c1)Oc1ccccc1` (stereo partly drawn) [Compound 393, 2-methoxyethyl (((2-(((3S,6S,9aS)-5-oxo-3-(3-(pyridin-3-yl)azetidine-1-carbonyl)octahydro-1H-pyrrolo[1,2-a]azepin-6-yl)carbamoyl)benzo [b]thiophen-5-yl)methyl)(phenoxy)phosphoryl)-L-alaninate] is higher in IC50: under 100 nM for the first, 100 to 1000 nM for the second.

`CCCOC(=O)[C@H](C)N[P@@](=O)(Oc1ccccc1)[C@@H](F)c1ccc2sc(C(=O)N[C@H]3CCC[C@H]4CC[C@@H](C(=O)N5CC(c6cnccc6C)C5)N4C3=O)cc2c1` (single isomer, unassigned) [Compound 1027] and `CCCOC(=O)[C@H](C)N[P@](=O)(Oc1ccccc1)[C@H](F)c1ccc2sc(C(=O)N[C@H]3CCC[C@H]4CC[C@@H](C(=O)N5CC(c6cnccc6OC)C5)N4C3=O)cc2c1` (single isomer, unassigned) [Compound 999] cannot be ordered by IC50: under 100 nM for the first, under 100 nM for the second.

Compared with `CC(C)OC(=O)OCOP(=O)(Cc1ccc2[nH]c(C(=O)N[C@H]3CCC[C@H]4CC[C@@H](C(=O)N5CC(c6cccnc6)C5)N4C3=O)cc2c1)OCOC(=O)OC(C)C` [Compound 965, diisopropyl (((((2-(((3S,6S,9aS)-5-oxo-3-(3-(pyridin-3-yl)azetidine-1-carbonyl)octahydro-1H-pyrrolo[1,2-a]azepin-6-yl)carbamoyl)-1H-indol-5-yl)methyl)phosphoryl)bis(oxy))bis (methylene)) bis(carbonate)], `CCOC(=O)[C@@H](NP(=O)(Cc1ccc2sc(C(=O)N[C@H]3CCC[C@H]4CC[C@@H](C(=O)N5CC(c6cccnc6)C5)N4C3=O)cc2c1)Oc1ccccc1)C(C)C` (stereo partly drawn) [Compound 949, ethyl (((2-(((3S,6S,9aS)-5-oxo-3-(3-(pyridin-3-yl)azetidine-1-carbonyl)octahydro-1H-pyrrolo[1,2-a]azepin-6-yl)carbamoyl)benzo [b]thiophen-5-yl)methyl) (phenoxy)phosphoryl)-L-valinate] is higher in IC50: 100 to 1000 nM for the first, 1000 to 3000 nM for the second. The first is the more potent here.

`C[C@H](NP(=O)(Cc1ccc2sc(C(=O)N[C@H]3CCC[C@H]4CC[C@@H](C(=O)N5CC(c6cccnc6)C5)N4C3=O)cc2c1)Oc1ccccc1)C(=O)OCCC(F)(F)F` (stereo partly drawn) [Compound 291, 3,3,3-trifluoropropyl (((2-(((3S,6S,9aS)-5-oxo-3-(3-(pyridin-3-yl)azetidine-1-carbonyl)octahydro-1H-pyrrolo[1,2-a]azepin-6-yl)carbamoyl)benzo [b]thiophen-5-yl)methyl)(phenoxy)phosphoryl)-L-alaninate] gave an IC50 of under 100 nM.

Same assay, conditions: STAT3, PBMC, compound 3 hrs, then 10 ng/mL IL-6 for 10 min; Table 115

Compound `CCCOC(=O)C(C)(C)NP(=O)(Cc1ccc2sc(C(=O)N[C@H]3CCC[C@H]4CC[C@@H](C(=O)N5CC(c6cccnc6)C5)N4C3=O)cc2c1)Oc1ccccc1` (stereo partly drawn) [Compound 445, propyl 2-methyl-2-((((2-(((3S,6S,9aS)-5-oxo-3-(3-(pyridin-3-yl)azetidine-1-carbonyl)octahydro-1H-pyrrolo[1,2-a]azepin-6-yl)carbamoyl)benzo [b]thiophen-5-yl)methyl)(phenoxy)phosphoryl)amino) propanoate] has an IC50 of under 100 nM.
